Common to all, as to format: cell-based
One assay concerns the target T1, human LPA3 (Homo sapiens, UniProt Q9UBY5).
T1 construct: expressed in transfected cells
T1 sequence (Q9UBY5 1-353): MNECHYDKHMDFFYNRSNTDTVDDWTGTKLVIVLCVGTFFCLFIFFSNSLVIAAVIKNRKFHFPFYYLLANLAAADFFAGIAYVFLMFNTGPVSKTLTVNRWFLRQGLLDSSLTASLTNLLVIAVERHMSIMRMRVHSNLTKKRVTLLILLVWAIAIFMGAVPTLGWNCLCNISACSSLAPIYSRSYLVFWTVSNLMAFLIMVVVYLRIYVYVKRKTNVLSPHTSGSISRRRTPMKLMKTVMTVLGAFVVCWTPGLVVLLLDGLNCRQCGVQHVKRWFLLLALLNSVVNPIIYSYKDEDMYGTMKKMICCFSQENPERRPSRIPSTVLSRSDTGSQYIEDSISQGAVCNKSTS
Kind of assay: Ca2+ mobilization assay, LPA3. The settings on record: for EC50: RH7777 cells stably expressing LPA3, agonist mode; for LPA3 (Emax): Emax = (maximal efficacy of compound/maximal efficacy of LPA 18:1) × 100; for LPA3 ligand type: agonist/antagonist in words. The procedure: (§1) Receptor activation using Ca^2+ mobilization assay for diastereomers of 1 (also represented as 19b). The rat hepatoma (RH7777) cell lines individually expressing either LPA1, LPA2, LPA3 or LPA5 receptors and Chinese hamster ovary (CHO) cell line were analyzed to examine agonism and antagonism. […] CHO cells stably expressing either vector or LPA4 were kindly gifted from Dr. Shimizu (University of Tokyo, Tokyo, Japan).
Stable transformants of LPA1/2/3 receptors. RH7777 cells stably expressing each receptor were plated onto poly-L-lysine (PLL) (0.1 mg/mL)-coated black-wall clear-bottom 96-well plates (Corning Incorporated Life Sciences, Acton, Mass.) at a density of 5×10^4 cells/well and cultured overnight. The following day, the culture medium was replaced with modified Krebs buffer (120 mM NaCl, 5 mM KCl, 0.62 mM MgSO4, 1.8 mM CaCl2, 10 mM HEPES, 6 mM glucose, pH 7.4), and the cells were serum starved for 6 h. Subsequently, cells were loaded with Fura-2 AM (Invitrogen, Carlsbad, Calif.) for 35 min in modified Krebs buffer containing 2% (v/v) pluronic acid.
(§2) After incubating the cells with Fura-2 AM, the cells were rinsed with Krebs buffer and changes in the intracellular Ca^2+ concentration were monitored by determining the ratio of emitted light intensities at 520 nm in response to excitation at 340 and 380 nm using FLEXstation II (Molecular Devices, Sunnyvale, Calif.). Each well was monitored for 80-120 sec. For testing agonist activity of the compounds, the test compounds were added automatically after 15 sec of baseline measurement. […] Each test was performed in quadruplicate. EC50, IC50, and Ki values were calculated by fitting a sigmoid function to data points with the nonlinear curve-fitting feature of KaleidaGraph (Synergy Software, Essex Junction, Vt.).
(§3) Receptor activation using Ca^2+ mobilization assay. The assay for mobilization of intracellular Ca^2+ was performed as described. Briefly, rat hepatoma RH7777 cells stably expressing human LPA1, LPA2, or LPA3, and CHO cells stably expressing LPA4, were loaded with Fura-2 AM (Molecular Probes). Using a FLEXStation (Molecular Devices, Sunnyvale, Calif.), changes in intracellular Ca^2+ concentration were monitored. Ligand-induced changes in fluorescence were monitored for 80-120 seconds. Ca^2+ transients were quantified automatically by calculating the difference between maximum and baseline ratio values for each sample. […] Each test was performed in quadruplicate. EC50, IC50, and Ki values were calculated as described. The ligand properties of the compounds were evaluated using Ca^2+ mobilization assay for assessing the activation/inhibition of LPA1, LPA2, and LPA3 expressed in RH7777 cells and LPA4 expressed in CHO cells.
On the technique in general: A change in cytosolic calcium serves as a functional read-out for many receptors and channels.

A further assay addresses T2, human LPA4 (Homo sapiens, UniProt Q99677).
T2 construct: expressed in transfected cells
Description: Ca2+ mobilization assay, LPA4 in CHO cells. The following applies: for EC50: CHO cells stably expressing LPA4, agonist mode; for inhibition at 30 µM: CHO, at 30 μM (400 nM LPA), read-out: LPA4 Inhibition; for LPA4 (Emax): Emax = (maximal efficacy of compound/maximal efficacy of LPA 18:1) × 100; for LPA4 ligand type: agonist/antagonist in words. How it is done: as §1
Stable transformants of LPA4. CHO cells stably expressing either vector or LPA4 were plated on non-coated 96 well plates at a density of 4×10^4 cells/well and cultured overnight. The following day, cells were loaded with Fura-2 AM for 1 h in modified Krebs buffer containing 2% (v/v) pluronic acid and 2.5 mM probenecid.
as §2, §3

For the next assay, the target named is T3, PPARγ (Homo sapiens, UniProt P37231).
T3 construct: expressed in transfected cells; host or cells: CV-1 cells, transient (LipofectAMINE 2000)
T3 sequence (P37231 1-505): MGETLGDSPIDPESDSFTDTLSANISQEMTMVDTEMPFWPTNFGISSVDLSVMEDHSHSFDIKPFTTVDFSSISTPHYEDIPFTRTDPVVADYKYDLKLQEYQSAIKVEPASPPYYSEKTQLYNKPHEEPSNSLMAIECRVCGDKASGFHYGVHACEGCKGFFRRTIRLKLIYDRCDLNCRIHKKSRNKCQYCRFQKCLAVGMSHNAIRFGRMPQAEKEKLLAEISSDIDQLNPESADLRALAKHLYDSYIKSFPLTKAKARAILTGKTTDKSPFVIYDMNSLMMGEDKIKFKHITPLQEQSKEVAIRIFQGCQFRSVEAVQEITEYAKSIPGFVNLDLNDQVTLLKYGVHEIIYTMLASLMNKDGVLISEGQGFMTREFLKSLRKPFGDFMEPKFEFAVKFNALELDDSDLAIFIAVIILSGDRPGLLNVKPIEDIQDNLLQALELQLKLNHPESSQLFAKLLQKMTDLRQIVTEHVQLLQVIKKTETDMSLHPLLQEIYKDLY
Description: PPARγ activation assay (PPRE-Acox-Rluc reporter in CV-1 cells). The following applies: 10 μM test analogue, 20 h. How it is done:
PPARγ activation assay. PPARγ activation was performed using CV-1 cells transfected with an acyl-coenzyme A oxidase-luciferase (PPRE-Acox-Rluc) reporter gene construct as previously reported. Briefly, CV-1 cells were plated in 96-well plates at a density of 1×10^4 cells per well in Dulbecco's modified Eagle's medium supplemented with 10% fetal bovine serum. The next day, the cells were transiently transfected with 125 ng of pGL3-PPRE-Acox-Rluc, 62.5 ng of pcDNA3.1 PPARγ, and 12.5 ng of pSV-β-galactosidase (Promega) using LipofectAMINE 2000 (Invitrogen). Twenty-four hours after transfection, cells were treated with OptiMEM (Invitrogen) containing 10 μM Rosiglitazone or 10 μM of the test analogue dissolved in DMSO for 20 h. Luciferase and β-galactosidase activities were measured with Steady-Glo® Luciferase Assay System (Promega) and the Galacto-Light Plus™ system (Applied Biosystems), respectively. Samples were run in quadruplicate and the mean ±standard errors were calculated. Data are representative of at least two independent transfections.

Setting [1] is: antagonist mode vs 200 nM LPA, read-out: LPA3 (Ki).
The mark [2] stands for this setting: diastereomer study, RH7777 cells, read-out: LPA3 IC50 (Table 2).
Setting [3] is: diastereomer study, RH7777 cells, read-out: LPA3 Ki (Table 2).

Like-named read-outs stand apart in the source and are kept apart here.

T2 sequence (Q99677 whole entry): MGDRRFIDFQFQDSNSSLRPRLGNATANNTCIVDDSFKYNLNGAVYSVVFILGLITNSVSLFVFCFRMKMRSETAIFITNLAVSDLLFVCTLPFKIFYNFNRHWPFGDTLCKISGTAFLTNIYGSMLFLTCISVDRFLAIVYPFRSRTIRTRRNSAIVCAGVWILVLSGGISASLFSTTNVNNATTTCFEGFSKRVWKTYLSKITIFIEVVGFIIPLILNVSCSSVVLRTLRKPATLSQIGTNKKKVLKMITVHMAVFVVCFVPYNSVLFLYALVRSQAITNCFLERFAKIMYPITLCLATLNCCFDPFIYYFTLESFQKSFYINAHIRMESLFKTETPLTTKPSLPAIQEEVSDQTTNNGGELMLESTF

As a reminder, the EC50 is the midpoint of the concentration-response curve. As usually defined, the Ki is the dissociation constant of the complex between target and ligand, obtained from inhibition or displacement. The term inhibition denotes the change of the read-out against control, counted positive when it falls. By IC50 is commonly meant the point on the concentration scale where inhibition reaches its midpoint. Turning to `CCCCCCCCCCCCCCCC(=O)OC[C@@H](O)CC(Br)P(=O)(O)O` (mixture of isomers) [Compound 1, [1-Bromo-3(S)-hydroxyl-4-(palmitoyloxy)butyl]-phosphonate], the EC50 on human LPA3 and at human LPA4 was above 30000 nM each time. Besides, the Ki is 380 nM on human LPA3 (setting [1]) and 167 nM on human LPA4 (antagonist mode vs 400 nM LPA). Also, the results for the inhibition at 30 µM at human LPA3 (at 30 μM (200 nM LPA)) and on human LPA4 were 71.3% and 13.9%, respectively. Moreover, the IC50 is 1160 ± 259 nM on human LPA3 (read-out: LPA3 IC50) and 266 nM at human LPA4.
As to `CCCCCCCCC=CCCCCCCCC(=O)OCC(O)CC(O)P(=O)([O-])O.[Na+]` (mixture of isomers) [Compound 22a, reference compound], on human LPA3, the “LPA3 (Emax)” value is “(116 ± 9.5)” and the concentration giving a half-maximal response (EC50) turned out to be 393 ± 89 nM. Moreover, on human LPA4, the EC50 is above 1150 nM, the “LPA4 (Emax)” value is “(71.7 ± 2.0)” and the LPA4 ligand type result is “weak LPA4 agonists”. Also, the “PPARγ (PPRE luciferase reporter gene assay)” value (shortened to “PPARγ”) on PPARγ is on record as “NE (NE = no effect was shown at the highest concentration (30 μM) tested.)”.
Take `CCCCCCCCCCCCCCCC(=O)OCC(O)CC(O)P(=O)([O-])O.[Na+]` (mixture of isomers) [Compound 22b, reference compound]: the half-maximal effective concentration (EC50) on human LPA3 and on human LPA4 was above 30000 nM each time. Further, the “PPARγ” value at PPARγ is recorded as “NE (NE = no effect was shown at the highest concentration (30 μM) tested.)”.
Take `CCCCCCCCCCCCCCCC(=O)OC[C@@H](O)C[C@@H](Br)P(=O)(O)O` [Compound 1a]: the LPA3 ligand type entry at human LPA3 is listed as “Antagonist”. Besides, the IC50 at human LPA3 (setting [2]) amounted to 4440 nM. Moreover, the Ki on human LPA3 (setting [3]) stood at 1830 nM. On human LPA4, the inhibition at 30 µM amounted to 35.1% and the LPA4 ligand type result was “Partial Antagonist”.
On to `CCCCCCCCCCCCCCCC(=O)OC[C@@H](O)C[C@H](Br)P(=O)(O)O` [Compound 1b], for which, on human LPA3, the LPA3 ligand type entry was “Antagonist”. Moreover, at human LPA3 (setting [2]), the IC50 was 2090 nM. Moreover, the Ki at human LPA3 (setting [3]) was determined as 623 nM. Besides, on human LPA4, the inhibition at 30 µM turned out to be 33.1% and the LPA4 ligand type entry was “Partial Antagonist”.
Regarding `CCCCCCCC/C=C\CCCCCCCC(=O)OCC(O)CCP(=O)(O)O` (stereo not drawn) [Compound 20a, reference compound], on human LPA3, the “LPA3 (Emax)” value was “(63.5 ± 4.8)” and the concentration giving a half-maximal response (EC50) is above 1710 nM. Besides, on human LPA4, the concentration giving a half-maximal response (EC50) amounted to 3900 ± 104 nM, the “LPA4 (Emax)” value is “(110 ± 1.3)” and the LPA4 ligand type entry is “weak LPA4 agonists”. Besides, at PPARγ, the “PPARγ” value is listed as “NE (NE = no effect was shown at the highest concentration (30 μM) tested.)”.
Turning to `CCCCCCCCCCCCCCCC(=O)OC[C@@H](O)CCP(=O)([O-])O.[Na+]` [Compound 20b, reference compound], the EC50 at human LPA3 was above 30000 nM. In addition, the half-inhibitory concentration (IC50) on human LPA3 (antagonist mode vs 200 nM LPA, PA = partial antagonist, read-out: LPA3 IC50) came out at 2560 ± 1160 nM. Also, the Ki on human LPA3 (setting [1]) stood at 961 nM. In addition, on human LPA4, the EC50 came out at 5400 ± 526 nM, the “LPA4 (Emax)” value was “(29.3 ± 1.1)” and the LPA4 ligand type result is reported as “weak LPA4 agonists”. For the same compound, the “PPARγ” value at PPARγ is “NE (NE = no effect was shown at the highest concentration (30 μM) tested.)”.
For `CCCCCCCCCCCCCCCC(=O)OCC(O)COP(=O)(O)O` (stereo not drawn) [LPA (16:0), reference compound], at human LPA3, the “LPA3 (Emax)” value is listed as “(71.2 ± 2.9)” and the EC50 is 1530 ± 194 nM. Moreover, on human LPA4, the concentration for a half-maximal effect (EC50) turned out to be 843 ± 130 nM and the “LPA4 (Emax)” value is recorded as “(102.4 ± 4.1)”. Besides, on PPARγ, the “PPARγ” value is listed as “NE (NE = no effect was shown at the highest concentration (30 μM) tested.)”.
